What is called Vd is the apparent volume that relates the amount in the body to the concentration in plasma or blood. Broadly, the clearance is a measure of how efficiently the substance is removed, as volume per time. Higher therefore signals efficient removal. As a reminder, the tissue uptake is the share of the injected amount in each gram of the tissue. Low readings indicate little accumulation, high ones strong accumulation.

Data set [1] can be described thus: Biodistribution in A431 tumor-bearing mice (Cy7 fluorescence and mTHPC HPLC). The note with it: 4 h.
Description: (§1) Mice were inoculated with 1 × 10^6 A431 cells suspended in 100 μL PBS subcutaneously into the right flank. […] Tumors were measured using a digital caliper. The tumor volume V (in mm^3) was calculated using the equation V = (π/6)LS^2, in which L is the largest and S is the smallest superficial diameter [30].
(§2) Tumors and a panel of organs (spleen, liver, lung, heart, kidney, skin, femur, and brain) were excised and imaged ex vivo by 2D fluorescence reflectance imaging (FRI) using a Pearl Trilogy imager from LI-COR and then stored at −80 °C until further processing for quantification. Organs and tumors from three untreated animals were used as controls.
(§3) To quantify the content of mTHPC and micelles in the tumors and the different organs, the excised tissue samples were treated as follows. First, 100 μL of RIPA lysis buffer was added to 100 mg of sliced tissues or organs. The mixture was homogenized by a tissue grinder (Percellys 24) at a speed of 6000/s for 60 s (for femur samples, 6000/s for 180 s) and the homogenate was subsequently aliquoted. To determine the mTHPC concentration in the samples, 1 volume of an aliquot of the homogenate (30 μL) was mixed with 120 μL of acetonitrile/DMSO (4:1 v/v) and vortexed for 1 min. The mixture was then centrifuged at 15,000× g for 10 min. Next, 50 μL of the obtained supernatant was injected into the HPLC system consisting of a Waters X Select Charged Surface Hybrid (CSH) C18 3.5 μm 4.6 × 150 mm column coupled with a fluorescence detector set at λex 420 nm and λem 650 nm to analyze mTHPC concentration [38]. The mobile phase was 0.1 % trifluoroacetic acid in acetonitrile/water (60:40, v/v) at a flow rate of 1 mL/min. The measuring range was from 0.005 to 4 μg/mL and the detection limit was 5 ng/mL. Calibration curves were obtained from a series of standard solutions of mTHPC in DMSO, to which 45 μL of the corresponding homogenized tissue samples obtained from control mice (i.e., not treated with any formulations) was added, followed by mTHPC extraction using acetonitrile/DMSO (4:1, v/v) and HPLC analysis.
(§4) To determine the concentration of Cy7-labeled micelles in the tissue homogenates, 1 volume of another aliquot of the homogenate (30 μL) was vortex-mixed with 2 volumes of RIPA lysis buffer (60 μL) for 1 min. The fluorescence of Cy7 in the mixture (20 μL) was detected at the 800 nm channel (i.e., λex 785 nm and λem 820 nm), using a LI-COR Odyssey scanner imaging system, and a calibration curve was obtained using samples with different concentrations of Cy7-labeled copolymer in a mixture of RIPA buffer (1 volume) and the corresponding homogenized tumor or organ samples (2 volumes) obtained from non-treated mice.
For the next data set, the system named is A431 cells. More on the design: method as in PMID 32142290. The conditions noted are these: same conditions, cited from earlier work.
A short description of data set [2]: in vivo. The conditions noted are these: female, Balb/c nude, mouse, plasma, iv, 300 ug/kg.
Description: as §1
(§5) For the latter, mice were killed through cervical dislocation while under deep isoflurane anesthesia. […] The plasma supernatant was collected, extracted using acetonitrile/DMSO (4:1, v/v), and analyzed by high-performance liquid chromatography (HPLC) and a LI-COR Odyssey imaging system to quantify the amount of mTHPC and Cy7-labeled micelles, respectively, as previously described [38]. Plasma concentration curves were analyzed by non-compartmental analysis with the PKSolver add-in for Microsoft Excel [40].
Data set [3] in a line: Side effects after i.v. administration in mice. It is filed as in vivo, Balb/c nude mice.
The subject of the next data set is HeLa cells. More on the design: method as in PMID 32142290. The note with it: cited from earlier work.
Data set [4] is described as follows: in vivo. The note with it: female, Balb/c nude, mouse, intravenous, 0.3 mg/kg.
Description: as §1, §2, §3, §4
In another data set the test system is cells. More on the design: method as in PMID 32142290. The conditions noted are these: cited from earlier work.
Data set [5] can be described thus: Circulation kinetics in A431 tumor-bearing mice (plasma Cy7 and mTHPC). The conditions noted are these: mTHPC detection, i.v. 300 µg mTHPC/kg.
Description: as §1, §5
Details of data set [6]: method as in PMID 25388924. The conditions noted are these: cited from earlier work.

Like-named read-outs stand apart in the source and are kept apart here.

As for `Oc1cccc(-c2c3nc(c(-c4cccc(O)c4)c4ccc([nH]4)c(-c4cccc(O)c4)c4nc(c(-c5cccc(O)c5)c5ccc2[nH]5)CC4)C=C3)c1` [Free mTHPC, meta-tetra(hydroxyphenyl)chlorin], the “total mTHPC accumulation in liver” value in [1] was ~ 15 % ID per liver. Further, in data set [1], the “total mTHPC accumulation in spleen or lung” value was ~ 1 % ID per spleen or lung. The EC50 in the data set on A431 cells (listed as free mTHPC) was ~ 1.5 µg/mL; with A431 cells, 1.6 ± 0.1 [38] µg/mL; in the data set on HeLa cells, 1.2 [38] µg/mL; in the data set on HeLa cells (listed as free mTHPC), ~ 1.5 µg/mL. Also, in “in vivo [2]”, the Vd stood at 0.12 L/kg. The clearance in “in vivo [2]” was 0.22 mL/min/kg. The “side effects after i.v. administration” value in data set [3] (300 µg mTHPC/kg, free mTHPC in ethanol/propylene glycol/PBS 20:30:50, micelles ~1 mg polymer, also reported in ref 38) was “tachypnea, passiveness immediately post-injection”. Further, the “loss of body weight” value in [3] (on average, within 24 h after i.v. injection) is ~ 1 g. In addition, the tissue uptake at 4 h in “in vivo [4]” (liver) was roughly 15 %ID/g. The tissue uptake at 24 h in the data set “in vivo [4]” (liver) is roughly 5 %ID/g; in “in vivo [4]” (tumor, kidney, heart, femur) it was 2 to 3 %ID/g. Moreover, the “mTHPC concentration toxic to cells without illumination” value with cells (after 7 h) is “higher than 50 µg/mL”; in the data set on cells (after 24 h), greater than 20 µg/mL. This compound also showed an AUC in data set [5] of 442 h*%. The “Half-life Phase α” value in data set [5] (estimated from first hour) is listed as no more than 0.5 h. Further, the “Half-life Phase β” value in [5] (non-compartmental analysis) came out at 2.1 h.
As to “axially solketal-substituted silicon phthalocyanine [Si(sol)2Pc]”, the quenching concentration is 16 µg/mL in data set [6] (in aromatic-substituted thermosensitive micelles, 0.45 mg/mL polymer) and ~ 0.05 µg/mL in data set [6] (in corresponding non-aromatic micelles).

Values taken from PMC7238042, “π-π-Stacked Poly(ε-caprolactone)-b-poly(ethylene glycol) Micelles Loaded with a Photosensitizer for Photodynamic Therapy” (Pharmaceutics, 2020).
